{
  "source": "paper PMC6345779",
  "about": "“Hypoculoside, a sphingoid base-like compound from Acremonium disrupts the membrane integrity of yeast cells” (Scientific Reports, 2019)",
  "key": {"[1]": {"system": "Saccharomyces cerevisiae diploid wild-type strain (BY4743)", "assay": "Growth inhibition of wild type Saccharomyces cerevisiae in YPD medium (96-well, OD600)", "assay_type": "cell-based", "method": "Figure 5 Structure-activity studies of hypoculoside. (A) Wild type strain (BY4743), vps35Δ, pep8Δ, vps20Δ, vps27Δ and vps36Δ strains were grown in YPD medium in the presence of hypoculoside or hypoculine at the indicated concentrations. Normalized growth at the different concentrations of hypoculoside and hypoculine tested after 24 hours of incubation at 30 °C is plotted for each strain. (B) Wild type strain (BY4743), vps35Δ, pep8Δ, vps20Δ, vps27Δ and vps36Δ strains were grown in YPD medium in the presence of hypoculoside or phytosphingosine or dihydrosphingosine at the indicated concentrations. Normalized growth at the different concentrations of hypoculoside, phytosphingosine and dihydrosphingosine tested after 24 hours of incubation at 30 °C is plotted for each strain.\nSusceptibility of Candida albicans strain SC5314 to hypoculoside and amphotericin B was determined by a broth microdilution assay using Clinical Laboratory Standards Institute (CLSI) guidelines. Cells grown to exponential phase in YPD medium (1% Yeast extract, 2% Bacto peptone and 2% glucose) were harvested, washed and resuspended in RPMI 1640 medium at a density of 2×10^3 cells/mL. RPMI 1640 medium with L-glutamine without sodium bicarbonate (Sigma) was buffered with 0.165 M morpholinepropanesulfonic acid (MOPS) to a pH of 7.0. Two-fold dilutions of hypoculoside and amphotericin B were prepared such that final concentration of DMSO was 1% in all cultures. Cell suspension was distributed in microtiter plate (200 µL/well) and incubated at 35 °C with 220 rpm for 24 h. The Saccharomyces cerevisiae diploid wild-type strain (BY4743) was used for determining the Inhibitory Concentration (IC) of hypoculoside. Frozen yeast cells were allowed to recover on YPD agar plates and grown in YPD medium for nine generations (OD600 nm ≤ 2). Cells were diluted to OD600 nm of 0.0625 in YPD medium. 200 μL of the diluted yeast culture was transferred into the 96-well microtiter plate having 2-fold serially diluted concentrations of hypoculoside. Cells were incubated in a microplate reader for 16–24 hours at 30 °C with shaking. IC of hypoculoside was computed by comparing the growth of treated versus control cells."}, "[2]": {"system": "Wild type strain (BY4743)", "assay": "Rescue of myriocin-induced growth inhibition in yeast", "assay_type": "cell-based, Saccharomyces cerevisiae", "method": "Myriocin is an inhibitor of Serine palmitoyltransferase (SPT), which catalyzes the first step in the synthesis of sphingolipid biosynthesis. Addition of PHS or DHS can rescue inhibition caused by myriocin[28]. We tested whether hypoculoside can rescue the toxicity of myriocin–treated cells.\nWild type strain (BY4743) was grown in YPD medium containing different concentrations of myriocin and either phytosphingosine (PHS) or dihydrosphingosine (DHS) or hypoculoside (HYP) at the indicated concentrations. Normalized growth at the different concentrations after 24 hours of incubation at 30 °C is plotted for the various cultures."}, "[3]": {"assay": "Mammalian cell cytotoxicity assay (PrestoBlue cell viability, 72 hours)", "assay_type": "cell-based", "settings": "human, A549, MIA PaCa-2, PANC-1, one range for the lines, read-out: cytotoxicity IC50 against human lung and pancreatic carcinoma cell lines", "method": "Effect of hypoculoside on the growth of three bacterial strains Staphylococcus aureus (ATCC 25923), Pseudomonas aeruginosa (ATCC 9027) and Klebsiella aerogenes (ATCC 13048) was assessed as previously described. Cytotoxicity of hypoculoside on the A549 human lung cell line and the pancreatic carcinoma cell lines MIA PaCa-2 and PANC-1 was determined as described before. A549 and MIA PaCa-2 were seeded at 1,500 cells per well, and PANC-1 cells were seeded at 2,500 cells per well in a 384-well microplate. Cells were treated with hypoculoside at various concentrations and incubated for 72 hours at 37 °C in the presence of 5% CO2. Cytotoxic effect of hypoculoside was measured using the PrestoBlue™ cell viability reagent (Life Technologies). Following incubation of the microplates with the dye for 2 hours, the fluorescence reading (Excitation/Emission: 560 nm/590 nm) was recorded using the Tecan Infinite M1000 Pro reader."}, "BY4743 cells": {"system": "BY4743 cells", "assay": "Propidium iodide (PI)-staining assay of plasma membrane integrity", "assay_type": "cell-based, Saccharomyces cerevisiae", "settings": "5.3 µM, after 2 hours", "method": "Figure 8 Hypoculoside but not hypoculine disrupts the membrane integrity of yeast cells. (A) Wild type yeast cells pre-treated with either DMSO or hypoculoside (5.4 μM) were exposed to FM 4-64FX. Uptake of FM 4-64FX after 0′, 30′ and 120′ was analyzed by fluorescence microscopy of fixed cells. (B) Yeast cells were incubated with either DMSO or hypoculoside or hypoculine at different concentrations (1.8, 3.5 and 5.3 µM) for 30′ and 2 hours. They were then treated with propidium iodide (PI) and percentage of PI-staining cells was assayed by fluorescence microscopy. Representative images of cells visualized by bright field and fluorescence microscopy are shown along with quantification of PI-staining cells (N = 100 cells) in (C).\nWe then tested whether hypoculoside causes membrane leakage using the membrane impermeant dye propidium iodide (PI). […] We then incubated the cells with PI and visualized its uptake by fluorescence microscopy. […]\nBY4743 cells (OD600 nm ≈ 1) were exposed to various concentrations of hypoculoside or hypoculine or DMSO in YPD for 30′ and 2 hours. […] PI uptake by cells was assayed by bright-field and fluorescence microscopy [Excitation/Emission (nm): 535/617] and the percentage of PI-staining cells (N ≥ 100) was calculated."}},
  "data": [
    {"smiles": "CC(N)C(O)CCCCCCCCCCCCCCCCCCC(O)C(C)OC1OC(CO)C(O)C(O)C1O", "note": "(stereo not shown) [hypoculoside, Hypoculoside]", "values": [
      {"measurement": "concentration that inhibited the growth of wild type cells", "setting": "[1]; BY4743, YPD, 24 hours at 30 °C (Fig. 5A)", "result": 11, "unit": "µM"},
      {"measurement": "IC50", "setting": "[1]; Saccharomyces cerevisiae, read-out: IC50 for growth of Saccharomyces cerevisiae cells", "result": 7.2, "unit": "µM"},
      {"measurement": "inhibition at 5.5 µM", "setting": "[1]; Saccharomyces cerevisiae, 5.5 µM, YPD, 24 hours at 30 °C", "result": 10, "unit": "%"},
      {"measurement": "rescue of myriocin-induced inhibition", "setting": "[2]; hypoculoside at the concentrations of Fig. 6", "result": "did not rescue"},
      {"measurement": "combined effect with myriocin on growth", "setting": "[2]; total effect = sum of individual effects", "result": "additive effect"},
      {"measurement": "IC50 at 72 h", "setting": "[3]", "result": "9 to 14", "unit": "µM"},
      {"measurement": "cells that had internalized PI", "setting": "BY4743 cells", "result": "about 60%"}
    ]}
  ]
}
